Literature values in patent US10912819B2, “Neuroprotective peptides derived from activity-dependent neuroprotective protein for treatment of neurological diseases” (priority 2016, dated 2021).
Read-outs that look alike come from different tables or passages of the source.

Tests used:
cornea = details: Kusano et al. 2010; cited from earlier work
[1] = not told; cited from earlier work
[2] = ambient temperatures and atmospheric pressures, cited from earlier work
rabbits = details: cited from earlier work

Compound	effect on cell survival (cornea)	effect on corneal permeability (cornea)	extent of permeation increase by preservative [1]	permeation in vitro in the presence of preservatives [1]	period of stability ([2]; Anhydrous) [years]	period of stability ([2]; Hemihydrate) [years]	skin irritation (rabbits; rabbit skin, 24 hour exposure)	signs of toxicity (rabbits; rabbit, in vivo, 2000 mg/kg)	acute dermal LD50 (rabbits; rabbits)	mortality (rabbits; single dermal application of 2000 mg/kg) [%]
benzalkonium chloride	adversely affected cell survival	affect corneal permeability	–	–	–	–	–	–	–	–
NC(=O)CC[C@@H]1NC(=O)[C@H](Cc2ccccc2)NC(=O)[C@H](Cc2ccc(O)cc2)NC(=O)CCSSC[C@@H](C(=O)N2CCC[C@H]2C(=O)N[C@H](CCCN=C(N)N)C(=O)NCC(N)=O)NC(=O)[C@H](CC(N)=O)NC1=O [DDAVP, desmopressin acetate]	–	–	chlorobutanol<benzalkonium<sorbate	always increased	–	–	–	–	–	–
CC(C)(O)C(Cl)(Cl)Cl [chlorobutanol, trichloro-2-methyl-2-propanol]	–	not chlorobutanol affect corneal permeability	–	–	3	5	Non-irritant	no signs of toxicity	greater than 2000 mg/kg	10
